Measurements reported in patent US9695155B2, “Herbicidal substituted pyrimidinyloxy benzene compounds” (E. I. DU PONT DE NEMOURS AND COMPANY, priority 2013, dated 2017).

How the values were obtained:
barnyardgrass [1] = experiment: Test A postemergence; type: in vivo, Echinochloa crus-galli; conditions: 0 to 100 scale where 0 is no effect and 100 is complete control
Method in brief: (§1)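 Scoring: eye-based comparison with untreated controls, 0 for no effect through 100 for complete control, at about day 10. Treatments: directed soil spray preemergence; foliar spray postemergence on 2–10 cm plants at the one- to two-leaf stage. Medium: loam soil with sand.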

giant foxtail = experiment: Test C postemergence; type: in vivo, Setaria faberii; conditions: for Foxtail, Giant plant response rating / Plant response rating, Foxtail, Giant: scale 0 to 100 (0 no effect, 100 complete control)
Method in brief: (§2)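 Injury was assessed visually against controls 13 to 15 days after application, with 0 meaning no effect and 100 full control; missing entries are shown as a dash. Preemergence sprays hit seeded loam–sand soil, postemergence sprays hit 1- to 4-leaf plants.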

wheat, winter = experiment: Test C postemergence; type: in vivo, Triticum aestivum; conditions: for Wheat plant response rating / Plant response rating, Wheat: scale 0 to 100 (0 no effect, 100 complete control)
Method in brief: as §2

sedge, umbrella = experiment: Test B flooded paddy test; type: in vivo, Cyperus difformis; conditions: Flood, 250 g ai/ha; 0 to 100 scale where 0 is no effect and 100 is complete control
Method in brief: (§3)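 Scores from 0 (no effect) to 100 (complete control) are visual comparisons with controls, taken 13 to 15 days after compound was applied into floodwater 3 cm deep around 2-leaf plants.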

barnyardgrass [2] = experiment: Test B flooded paddy test; type: in vivo, Echinochloa crus-galli; conditions: Flood, 250 g ai/ha; 0 to 100 scale where 0 is no effect and 100 is complete control
Method in brief: as §3

rice = experiment: Test B flooded paddy test; type: in vivo, Oryza sativa; conditions: Flood, 250 g ai/ha; 0 to 100 scale where 0 is no effect and 100 is complete control
Method in brief: as §3

morningglory [3] = experiment: Test A preemergence; type: in vivo, Ipomoea spp.; conditions: for Morningglory plant response rating: 500 g ai/ha
Method in brief: as §1

soybean = experiment: Test C postemergence; type: in vivo, Glycine max; conditions: for Soybean plant response rating / Plant response rating, Soybean: scale 0 to 100 (0 no effect, 100 complete control)
Method in brief: as §2

ragweed = experiment: Test C postemergence; type: in vivo, Ambrosia elatior; conditions: for Ragweed plant response rating / Plant response rating, Ragweed: scale 0 to 100 (0 no effect, 100 complete control)
Method in brief: as §2

corn [4] = experiment: Test C postemergence; type: in vivo, Zea mays; conditions: for Corn plant response rating / Plant response rating, Corn: scale 0 to 100 (0 no effect, 100 complete control)
Method in brief: as §2

morningglory [5] = experiment: Test C postemergence; type: in vivo, Ipomoea coccinea; conditions: for Morningglory plant response rating / Plant response rating, Morningglory: scale 0 to 100 (0 no effect, 100 complete control)
Method in brief: as §2

corn [6] = experiment: Test A preemergence; type: in vivo, Zea mays; conditions: for Corn plant response rating: 500 g ai/ha
Method in brief: as §1

wheat = experiment: Test A postemergence; type: in vivo, Triticum aestivum; conditions: 0 to 100 scale where 0 is no effect and 100 is complete control
Method in brief: as §1

large (Lg) crabgrass = experiment: Test A preemergence; type: in vivo, Digitaria sanguinalis; conditions: for Crabgrass, Large plant response rating: 500 g ai/ha
Method in brief: as §1

velvetleaf = experiment: Test A preemergence; type: in vivo, Abutilon theophrasti; conditions: for Velvetleaf plant response rating: 500 g ai/ha
Method in brief: as §1

yellow nutsedge = experiment: Test C postemergence; type: in vivo, Cyperus esculentus; conditions: for Nutsedge, Yellow plant response rating / Plant response rating, Nutsedge, Yellow: scale 0 to 100 (0 no effect, 100 complete control)
Method in brief: as §2

Heteranthera limosa = experiment: Test B flooded paddy test; type: in vivo; conditions: Flood, 250 g ai/ha; 0 to 100 scale where 0 is no effect and 100 is complete control
Method in brief: as §3

[7] = 16 g ai/ha, postemergence, 0 is no effect, 100 is complete control
[8] = 31 g ai/ha, postemergence, visual rating, 13 to 15 days
[9] = 125 g ai/ha, postemergence, visual rating
[10] = 0 to 100 scale where 0 is no effect and 100 is complete control
[11] = Postemergence, 62 g ai/ha, 13 to 15 days
[12] = 16 g ai/ha, postemergence, visual rating, 13 to 15 days
[13] = Postemergence, 31 g ai/ha, 13 to 15 days
[14] = 125 g ai/ha, 0 to 100 scale where 0 is no effect and 100 is complete control
[15] = 0 to 100 scale, 0 no effect, 100 complete control, approx. 10 days

## Cc1cnc(Oc2cccc(C#N)c2-n2cc(C(F)(F)F)cn2)nc1 [Compound 180]
Barnyardgrass [1]; 125 g ai/ha
  Barnyardgrass plant response rating: 90
Barnyardgrass [1]; 500 g ai/ha
  Plant response rating, Barnyardgrass: 100
Giant foxtail; [7]
  Plant response rating (0 to 100), Foxtail, Giant: 5
Giant foxtail; [8]
  Foxtail, Giant plant response rating: 5
Giant foxtail; [9]
  Plant response rating, Foxtail, Giant: 80
Giant foxtail; Postemergence, 62 g ai/ha
  Plant response rating, Foxtail, Giant: 10
wheat, winter; [7]
  Plant response rating (0 to 100), Wheat: 0
wheat, winter; [8]
  Wheat plant response rating: 0
wheat, winter; [9]
  Plant response rating, Wheat: 5
wheat, winter; Postemergence, 62 g ai/ha
  Plant response rating, Wheat: 0
sedge, umbrella
  Plant response rating, Sedge, Umbrella: 80
Barnyardgrass [2]
  Plant response rating, Barnyardgrass: 60
rice
  Plant response rating, Rice: 40
Morningglory [3]; 125 g ai/ha
  Morningglory plant response rating (0 to 100 scale): 90
Morningglory [3]; [10]
  Morningglory plant response rating: 100
soybean; [7]
  Plant response rating (0 to 100), Soybean: 85
soybean; [8]
  Soybean plant response rating: 85
soybean; [9]
  Plant response rating, Soybean: 95
soybean; Postemergence, 62 g ai/ha
  Plant response rating, Soybean: 98
ragweed; [7]
  Plant response rating (0 to 100), Ragweed: 35
ragweed; [8]
  Ragweed plant response rating: 65
ragweed; [9]
  Plant response rating, Ragweed: 70
ragweed; Postemergence, 62 g ai/ha
  Plant response rating, Ragweed: 80
Corn [4]; [7]
  Plant response rating (0 to 100), Corn: 0
Corn [4]; [8]
  Corn plant response rating: 5
Corn [4]; [9]
  Plant response rating, Corn: 10
Corn [4]; Postemergence, 62 g ai/ha
  Plant response rating, Corn: 5
Morningglory [5]; [7]
  Plant response rating (0 to 100), Morningglory: 45
Morningglory [5]; [8]
  Morningglory plant response rating: 65
Morningglory [5]; [9]
  Plant response rating, Morningglory: 90
Morningglory [5]; Postemergence, 62 g ai/ha
  Plant response rating, Morningglory: 75
Corn [6]; 125 g ai/ha
  Corn plant response rating (0 to 100 scale): 60
Corn [6]; [10]
  Corn plant response rating: 90
wheat; 125 g ai/ha
  Wheat plant response rating: 40
wheat; 500 g ai/ha
  Plant response rating, Wheat: 80
Large (Lg) crabgrass; 125 g ai/ha
  Crabgrass, Large plant response rating (0 to 100 scale): 100
Large (Lg) crabgrass; [10]
  Crabgrass, Large plant response rating: 100
velvetleaf; 125 g ai/ha
  Velvetleaf plant response rating (0 to 100 scale): 100
velvetleaf; [10]
  Velvetleaf plant response rating: 100
Yellow nutsedge; [7]
  Plant response rating (0 to 100), Nutsedge, Yellow: 0
Yellow nutsedge; [8]
  Nutsedge, Yellow plant response rating: 0
Yellow nutsedge; [9]
  Plant response rating, Nutsedge, Yellow: 10
Yellow nutsedge; Postemergence, 62 g ai/ha
  Plant response rating, Nutsedge, Yellow: 10
Heteranthera limosa
  Plant response rating, Ducksalad: 80

## Fc1cnc(Oc2ccccc2-n2cc(C(F)F)cn2)nc1 [Compound 228]
Barnyardgrass [1]; 125 g ai/ha
  Barnyardgrass plant response rating: 10
Barnyardgrass [1]; 500 g ai/ha
  Plant response rating, Barnyardgrass: 90
Giant foxtail; [7]
  Plant response rating (0 to 100), Foxtail, Giant: 0
Giant foxtail; [8]
  Foxtail, Giant plant response rating: 0
Giant foxtail; [9]
  Plant response rating, Foxtail, Giant: 5
Giant foxtail; [11]
  Plant response rating, Foxtail, Giant: 0
wheat, winter; [7]
  Plant response rating (0 to 100), Wheat: 0
wheat, winter; [8]
  Wheat plant response rating: 0
wheat, winter; [9]
  Plant response rating, Wheat: 0
wheat, winter; [11]
  Plant response rating, Wheat: 0
sedge, umbrella
  Plant response rating, Sedge, Umbrella: 60
Barnyardgrass [2]
  Plant response rating, Barnyardgrass: 0
rice
  Plant response rating, Rice: 0
Morningglory [3]; 125 g ai/ha
  Morningglory plant response rating (0 to 100 scale): 10
Morningglory [3]; [10]
  Morningglory plant response rating: 80
soybean; [7]
  Plant response rating (0 to 100), Soybean: 25
soybean; [8]
  Soybean plant response rating: 35
soybean; [9]
  Plant response rating, Soybean: 80
soybean; [11]
  Plant response rating, Soybean: 60
ragweed; [7]
  Plant response rating (0 to 100), Ragweed: 5
ragweed; [8]
  Ragweed plant response rating: 20
ragweed; [9]
  Plant response rating, Ragweed: 45
ragweed; [11]
  Plant response rating, Ragweed: 55
Corn [4]; [7]
  Plant response rating (0 to 100), Corn: 0
Corn [4]; [8]
  Corn plant response rating: 0
Corn [4]; [9]
  Plant response rating, Corn: 5
Corn [4]; [11]
  Plant response rating, Corn: 0
Morningglory [5]; [7]
  Plant response rating (0 to 100), Morningglory: 5
Morningglory [5]; [8]
  Morningglory plant response rating: 10
Morningglory [5]; [9]
  Plant response rating, Morningglory: 35
Morningglory [5]; [11]
  Plant response rating, Morningglory: 25
Corn [6]; 125 g ai/ha
  Corn plant response rating (0 to 100 scale): 0
Corn [6]; [10]
  Corn plant response rating: 40
wheat; 125 g ai/ha
  Wheat plant response rating: 0
wheat; 500 g ai/ha
  Plant response rating, Wheat: 70
Large (Lg) crabgrass; 125 g ai/ha
  Crabgrass, Large plant response rating (0 to 100 scale): 90
Large (Lg) crabgrass; [10]
  Crabgrass, Large plant response rating: 100
velvetleaf; 125 g ai/ha
  Velvetleaf plant response rating (0 to 100 scale): 70
velvetleaf; [10]
  Velvetleaf plant response rating: 100
Yellow nutsedge; [7]
  Plant response rating (0 to 100), Nutsedge, Yellow: 0
Yellow nutsedge; [8]
  Nutsedge, Yellow plant response rating: 0
Yellow nutsedge; [9]
  Plant response rating, Nutsedge, Yellow: 5
Yellow nutsedge; [11]
  Plant response rating, Nutsedge, Yellow: 5
Heteranthera limosa
  Plant response rating, Ducksalad: 75

## Fc1cnc(Oc2cccc(C(F)F)c2-n2cc(Cl)cn2)nc1 [Compound 94]
Barnyardgrass [1]; 125 g ai/ha
  Plant response rating, Barnyardgrass: 20
Barnyardgrass [1]; 500 g ai/ha
  Plant response rating, Barnyardgrass: 90
Giant foxtail; [12]
  Foxtail, Giant plant response rating: 10
Giant foxtail; 125 g ai/ha, postemergence
  Plant response rating (0 to 100), Foxtail, Giant: 10
Giant foxtail; [13]
  Plant response rating, Foxtail, Giant: 10
Giant foxtail; Postemergence, 62 g ai/ha
  Plant response rating, Foxtail, Giant: 10
wheat, winter; 125 g ai/ha, postemergence
  Plant response rating (0 to 100), Wheat: 0
wheat, winter; [13]
  Plant response rating, Wheat: 0
wheat, winter; Postemergence, 62 g ai/ha
  Plant response rating, Wheat: 0
sedge, umbrella
  Plant response rating, Sedge, Umbrella: 30
Barnyardgrass [2]
  Plant response rating, Barnyardgrass: 0
rice
  Plant response rating, Rice: 0
Morningglory [3]; [14]
  Plant response rating, Morningglory: 40
Morningglory [3]; [15]
  Morningglory plant response rating: 90
soybean; 125 g ai/ha, postemergence
  Plant response rating (0 to 100), Soybean: 80
soybean; [13]
  Plant response rating, Soybean: 45
soybean; Postemergence, 62 g ai/ha
  Plant response rating, Soybean: 85
ragweed; 125 g ai/ha, postemergence
  Plant response rating (0 to 100), Ragweed: 45
ragweed; [13]
  Plant response rating, Ragweed: 15
ragweed; Postemergence, 62 g ai/ha
  Plant response rating, Ragweed: 55
Corn [4]; [12]
  Corn plant response rating: 5
Corn [4]; 125 g ai/ha, postemergence
  Plant response rating (0 to 100), Corn: 5
Corn [4]; [13]
  Plant response rating, Corn: 5
Corn [4]; Postemergence, 62 g ai/ha
  Plant response rating, Corn: 35
Morningglory [5]; 125 g ai/ha, postemergence
  Plant response rating (0 to 100), Morningglory: 55
Morningglory [5]; [13]
  Plant response rating, Morningglory: 75
Morningglory [5]; Postemergence, 62 g ai/ha
  Plant response rating, Morningglory: 75
Corn [6]; [14]
  Plant response rating, Corn: 0
Corn [6]; [15]
  Corn plant response rating: 30
wheat; 125 g ai/ha
  Plant response rating, Wheat: 0
wheat; 500 g ai/ha
  Plant response rating, Wheat: 50
Large (Lg) crabgrass; [14]
  Plant response rating, Crabgrass, Large: 100
Large (Lg) crabgrass; [15]
  Crabgrass, Large plant response rating: 100
velvetleaf; [14]
  Plant response rating, Velvetleaf: 90
Yellow nutsedge; 125 g ai/ha, postemergence
  Plant response rating (0 to 100), Nutsedge, Yellow: 10
Yellow nutsedge; [13]
  Plant response rating, Nutsedge, Yellow: 5
Yellow nutsedge; Postemergence, 62 g ai/ha
  Plant response rating, Nutsedge, Yellow: 45
Heteranthera limosa
  Plant response rating, Ducksalad: 40
